Reference: patent US10501516B2, “Peptide compound” (TAKEDA PHARMACEUTICAL COMPANY LIMITED, priority 2016, dated 2019)
Square brackets hold non-standard residues; d marks the D form. Side chains are listed from the residue outwards. Peptide text beside a SMILES is read from it. * marks the point of attachment. C18 diacid = O=C(O)CCCCCCCCCCCCCCCCC(=O)*; Phe(2-F) = N[C@@H](Cc1ccccc1F)C(=O)O; NMeY = CN[C@@H](Cc1ccc(O)cc1)C(=O)O; Palmitoyl = CCCCCCCCCCCCCCCC(=O)*; αMeF = C[C@](N)(Cc1ccccc1)C(=O)O; Iva = CC[C@](C)(N)C(=O)O; Aib = CC(C)(N)C(=O)O

Columns and labels:
human NPY2R = target: T1, human NPY2R (Homo sapiens, UniProt P49146); assay: Reporter assay of human NPY2R gene (agonist activity, decrease in intracellular cAMP as index); assay type: cell-based; settings: Cre-luc reporter, hNPY2R CHO-K1 cells, forskolin 1.2 μM, 4 hours; read-out: Agonist activity (EC50) hY2R
T1 construct: expressed in transfected cells; host or cells: CHO-K1 Cre-luc reporter cells (pAKKO1114/hNPY2R#481 No. 88 cells)
T1 sequence (P49146 1-381): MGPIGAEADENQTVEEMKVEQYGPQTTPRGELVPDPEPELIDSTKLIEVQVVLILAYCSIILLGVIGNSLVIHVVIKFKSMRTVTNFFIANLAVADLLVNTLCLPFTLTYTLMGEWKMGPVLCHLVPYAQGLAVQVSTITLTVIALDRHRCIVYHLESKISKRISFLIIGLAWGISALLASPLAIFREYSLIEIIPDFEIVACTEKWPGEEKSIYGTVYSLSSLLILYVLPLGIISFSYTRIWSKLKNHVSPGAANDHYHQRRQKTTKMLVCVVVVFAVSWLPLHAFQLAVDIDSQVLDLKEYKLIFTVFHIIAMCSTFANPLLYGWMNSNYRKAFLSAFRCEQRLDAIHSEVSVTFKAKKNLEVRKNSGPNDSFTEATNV
From the text: (§1) Evaluation of Agonist Activity Against Human NPY2R, Human GIPR, and Human GLP-1R Using Change in Intracellular cAMP Concentration as Index
The human NPY2R gene having a sequence identical to the sequence of GenBank Accession No. AC104407 was cloned into pAKKO1114 vector to prepare hNPY2R/pAKKO1114. Next, pGL4.29 (Promega) was introduced to CHO-K1 cells, which were then screened with hygromycin to construct Cre-luc reporter cells. These cells were cotransfected with hNPY2R/pAKKO1114 and pcDNA3.1 (Life Technologies Corp.), and the cells were screened with geneticin. Next, a cell line induced to express luciferase, i.e., pAKKO1114/hNPY2R#481 No. 88 cells, were selected from the obtained transformants by the addition of human PYY (3-36).
The pAKKO1114/hNPY2R#481 No. 88 cells were inoculated at a cell density of 25 μL/well (5,000 cells/well) to a 384-well white plate (Corning, 3570), and cultured overnight in Ham F12 medium containing 10% fetal bovine serum, 100 U/mL penicillin and 100 μg/mL streptomycin in a CO2 incubator of 37° C. On the next day, the medium was removed, and an assay medium (Ham F12 medium containing 0.1% BSA, 100 U/mL penicillin and 100 μg/mL streptomycin) containing forskolin (final concentration: 1.2 μM) was added at a concentration of 25 μL/well to the cells. Next, an assay medium containing a test compound was added at a concentration of 5 μL/well to the cells, and the resultant cells were incubated for 4 hours in a CO2 incubator of 37° C. to give the final concentration of 1 μM. SteadyGlo (Promega) was added thereto at a concentration of 30 μL/well, and the mixture was left standing for 20 minutes with light shielded. The luciferase activity was measured using a plate reader Envision (PerkinElmer). The luciferase activity from the addition of DMSO was defined as 100%, and the luciferase activity from the addition of 1 μM human PYY(3-36) instead of the test compound was defined as 0%. The NPY2R agonist activity was calculated with a decrease in intracellular cAMP concentration as an index.

male C57BL/6J mouse = assay: Evaluation of feeding suppressive action in mice; assay type: in vivo; settings: 3-days cumulative food consumption vs solvent control
Procedure, shortened: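 Male C57BL/6J mice, 8-9 weeks, ad libitum fed, given compound (30 or 100 nmol/2 mL in 10% DMSO saline) s.c. at 2 mL/kg once daily for 3 days. Cumulative 3-day food consumption measured by weighing; suppression rate (%) calculated relative to vehicle controls.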

human GIPR = target: T2, human GIPR (Homo sapiens, UniProt P48546); assay: Reporter assay of human GIPR gene (agonist activity, intracellular cAMP as index); assay type: cell-based; settings: Cre-luc reporter, hGIPR/CHO-K1 cells, 4 hours
T2 construct: expressed in transfected cells; host or cells: CHO-K1 Cre-luc reporter cells (hGIPR/CHO-K1, also called hGIPR/CRE-LUC/CHO-K1)
T2 sequence (P48546 22-466): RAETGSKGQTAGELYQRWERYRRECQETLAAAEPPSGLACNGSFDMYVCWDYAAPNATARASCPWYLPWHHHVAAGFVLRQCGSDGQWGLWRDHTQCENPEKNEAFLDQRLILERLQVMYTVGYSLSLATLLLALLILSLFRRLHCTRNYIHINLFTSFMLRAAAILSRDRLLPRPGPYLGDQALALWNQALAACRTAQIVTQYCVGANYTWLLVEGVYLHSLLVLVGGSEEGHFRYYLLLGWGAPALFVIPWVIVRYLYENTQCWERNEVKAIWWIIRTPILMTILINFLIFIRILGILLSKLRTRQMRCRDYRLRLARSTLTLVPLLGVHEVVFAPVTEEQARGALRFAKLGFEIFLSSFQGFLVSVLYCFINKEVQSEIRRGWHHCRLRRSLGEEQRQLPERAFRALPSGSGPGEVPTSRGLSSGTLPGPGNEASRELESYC
From the text: as §1
The human GIPR gene having a sequence identical to the sequence of GenBank Accession No. U39231 was cloned into pMSRα-neo vector to prepare hGIPR/pMSRα-neo. This vector was introduced to the Cre-luc reporter cells obtained in (1) to obtain transformants. Next, a cell line induced to express luciferase, i.e., hGIPR/CHO-K1 cells, were selected from the obtained transformants by the addition of GIP.
The hGIPR/CRE-LUC/CHO-K1 cells or the hGLP-1R/Crel cells were inoculated at a cell density of 25 μL/well (5,000 cells/well) to a 384-well white plate (Corning, 3570), and cultured overnight in Ham F12 medium containing 10% fetal bovine serum, 100 U/mL penicillin and 100 μg/mL streptomycin in a CO2 incubator of 37° C. On the next day, a medium containing a test compound was added at a concentration of 5 μL/well to the cells, and the resultant cells were incubated for 4 hours in a CO2 incubator of 37° C. to give the final concentration of 1 μM. SteadyGlo (Promega) was added thereto at a concentration of 30 μL/well, and the mixture was shaken with light shielded. After 30 minutes, the luciferase activity was measured using a plate reader Envision (PerkinElmer). For the GIPR agonist activity, the luciferase activity in the presence of 10 μM GIP was defined as 100%, and the luciferase activity from the addition of DMSO instead of the test compound was defined as 0%. The GIPR agonist activity was calculated with a rise in intracellular cAMP concentration as an index.

EC50 (human NPY2R)	EC50 (human GIPR)	Compound	Rate of feeding suppression (%) (male C57BL/6J mouse; 100 nmol/kg s.c. once a day for 3 days)	Rate of feeding suppression (%) (male C57BL/6J mouse; 30 nmol/kg s.c. once a day for 3 days)
2.1 nM	–	CC[C@H](C)[C@H](NC(=O)C(C)(C)NC(=O)[C@H](CCCCNC(=O)CNC(=O)CNC(=O)CNC(=O)CNC(=O)CCCCCCCCCCCCCCCCC(=O)O)NC(=O)[C@H](CC(=O)O)NC(=O)[C@H](CO)NC(=O)[C@@H](NC(=O)[C@](C)(Cc1ccccc1)NC(=O)[C@@H](NC(=O)CNC(=O)[C@H](CCC(=O)O)NC(=O)C(C)(C)NC(=O)[C@@H](N)Cc1ccc(O)cc1)[C@@H](C)O)[C@@H](C)O)C(=O)NC(C)(C)C(=O)N[C@@H](CC(C)C)C(=O)N[C@@H](CC(=O)O)C(=O)N[C@@H](CCCCN)C(=O)N[C@@H](CCC(N)=O)C(=O)N[C@@H](C)C(=O)N[C@@H](CCC(N)=O)C(=O)N[C@@](C)(CC)C(=O)N[C@@H](CCC(=O)O)C(=O)N[C@@H](Cc1ccccc1)C(=O)N[C@H](C(=O)N[C@@H](CCCNC(=N)N)C(=O)N[C@@H](Cc1c[nH]cn1)C(=O)N[C@@H](CC(C)C)C(=O)N[C@@H](CC(C)C)C(=O)N[C@@H](CC(N)=O)C(=O)N[C@@H](CCCCN)C(=O)NC(C)(C)C(=O)N[C@H](C(=O)N[C@@H](CCCNC(=N)N)C(=O)N[C@@H](CCC(N)=O)C(=O)N[C@@H](CCCNC(=N)N)C(=O)N[C@@H](Cc1ccccc1F)C(N)=O)[C@@H](C)O)C(C)C [Example 2] (H-Y[Aib]EGT[αMeF]TSDK([Gly-Gly-Gly-Gly-C18 diacid])[Aib]I[Aib]LDKQAQ[Iva]EFVRHLLNK[Aib]TRQR[Phe(2-F)]-NH2)	−77.3%	–
0.1 nM	0.068 nM	CCCCCCCCCCCCCCCC(=O)NCC(=O)NCC(=O)NCC(=O)NCC(=O)NCCCC[C@H](NC(=O)[C@H](CC(=O)O)NC(=O)[C@H](CO)NC(=O)[C@@H](NC(=O)[C@](C)(Cc1ccccc1)NC(=O)[C@@H](NC(=O)CNC(=O)[C@H](CCC(=O)O)NC(=O)C(C)(C)NC(=O)[C@H](Cc1ccc(O)cc1)NC)[C@@H](C)O)[C@@H](C)O)C(=O)NC(C)(C)C(=O)N[C@H](C(=O)NC(C)(C)C(=O)N[C@@H](CC(C)C)C(=O)N[C@@H](CC(=O)O)C(=O)N[C@@H](CCCCN)C(=O)N[C@@H](CCC(N)=O)C(=O)N[C@@H](CCCNC(=N)N)C(=O)N[C@@H](CCC(N)=O)C(=O)N[C@@](C)(CC)C(=O)N[C@@H](CCC(=O)O)C(=O)N[C@@H](Cc1ccccc1)C(=O)N[C@H](C(=O)N[C@@H](CCCNC(=N)N)C(=O)N[C@@H](Cc1c[nH]cn1)C(=O)N[C@@H](CC(C)C)C(=O)N[C@@H](CC(C)C)C(=O)N[C@@H](CC(N)=O)C(=O)N[C@@H](CCCCN)C(=O)NC(C)(C)C(=O)N[C@H](C(=O)N[C@@H](CCCNC(=N)N)C(=O)N[C@@H](CCC(N)=O)C(=O)N[C@@H](CCCNC(=N)N)C(=O)N[C@@H](Cc1ccc(O)cc1)C(N)=O)[C@@H](C)O)C(C)C)[C@@H](C)CC [Example 9] (H-[NMeY][Aib]EGT[αMeF]TSDK([Gly-Gly-Gly-Gly-Palmitoyl])[Aib]I[Aib]LDKQRQ[Iva]EFVRHLLNK[Aib]TRQRY-NH2)	–	–
2.6 nM	–	CC[C@H](C)[C@H](NC(=O)[C@H](CO)NC(=O)[C@H](CCCCNC(=O)CNC(=O)CNC(=O)CNC(=O)CNC(=O)CCCCCCCCCCCCCCCCC(=O)O)NC(=O)[C@H](CC(=O)O)NC(=O)[C@H](CO)NC(=O)[C@@H](NC(=O)[C@](C)(Cc1ccccc1)NC(=O)[C@@H](NC(=O)CNC(=O)[C@H](CCC(=O)O)NC(=O)C(C)(C)NC(=O)[C@@H](N)Cc1ccc(O)cc1)[C@@H](C)O)[C@@H](C)O)C(=O)NC(C)(C)C(=O)N[C@@H](CC(C)C)C(=O)N[C@@H](CC(=O)O)C(=O)N[C@@H](CCCCN)C(=O)N[C@@H](CCC(N)=O)C(=O)N[C@@H](CCCNC(=N)N)C(=O)N[C@@H](CCC(N)=O)C(=O)N[C@@](C)(CC)C(=O)N[C@@H](CCC(=O)O)C(=O)N[C@@H](Cc1ccccc1)C(=O)N[C@H](C(=O)N[C@@H](CCCNC(=N)N)C(=O)N[C@@H](Cc1c[nH]cn1)C(=O)N[C@@H](CC(C)C)C(=O)N[C@@H](CC(C)C)C(=O)N[C@@H](CC(N)=O)C(=O)N[C@@H](CCCCN)C(=O)NC(C)(C)C(=O)N[C@H](C(=O)N[C@@H](CCCNC(=N)N)C(=O)N[C@@H](CCC(N)=O)C(=O)N[C@@H](CCCNC(=N)N)C(=O)N[C@@H](Cc1ccc(O)cc1)C(N)=O)[C@@H](C)O)C(C)C [Example 16] (H-Y[Aib]EGT[αMeF]TSDK([Gly-Gly-Gly-Gly-C18 diacid])SI[Aib]LDKQRQ[Iva]EFVRHLLNK[Aib]TRQRY-NH2)	–	–
1.5 nM	–	CC[C@H](C)[C@H](NC(=O)C(C)(C)NC(=O)[C@H](CCCCNC(=O)CNC(=O)CNC(=O)CNC(=O)CNC(=O)CCCCCCCCCCCCCCCCC(=O)O)NC(=O)[C@H](CC(=O)O)NC(=O)[C@H](CO)NC(=O)[C@@H](NC(=O)[C@](C)(Cc1ccccc1)NC(=O)[C@@H](NC(=O)CNC(=O)[C@H](CCC(=O)O)NC(=O)C(C)(C)NC(=O)[C@H](Cc1ccc(O)cc1)NC)[C@@H](C)O)[C@@H](C)O)C(=O)NC(C)(C)C(=O)N[C@@H](CC(C)C)C(=O)N[C@@H](CCC(=O)O)C(=O)N[C@@H](CCCCN)C(=O)N[C@@H](CCC(N)=O)C(=O)N[C@@H](CCCNC(=N)N)C(=O)N[C@@H](CCC(N)=O)C(=O)N[C@@](C)(CC)C(=O)N[C@@H](CCC(=O)O)C(=O)N[C@@H](Cc1ccccc1)C(=O)N[C@H](C(=O)N[C@@H](CCCNC(=N)N)C(=O)N[C@@H](Cc1c[nH]cn1)C(=O)N[C@@H](CC(C)C)C(=O)N[C@@H](CC(C)C)C(=O)N[C@@H](CC(N)=O)C(=O)N[C@@H](CCCCN)C(=O)NC(C)(C)C(=O)N[C@H](C(=O)N[C@@H](CCCNC(=N)N)C(=O)N[C@@H](CCC(N)=O)C(=O)N[C@@H](CCCNC(=N)N)C(=O)N[C@@H](Cc1ccc(O)cc1)C(N)=O)[C@@H](C)O)C(C)C [Example 34] (H-[NMeY][Aib]EGT[αMeF]TSDK([Gly-Gly-Gly-Gly-C18 diacid])[Aib]I[Aib]LEKQRQ[Iva]EFVRHLLNK[Aib]TRQRY-NH2)	–	−39.9%
